Patent publication US9896423B2, “Deuterium substituted 1-[2-(2,4-dimethyl-phenylsulfanyl)-phenyl]piperazine compound or derivatives thereof, and pharmaceutical composition and use thereof” (Jiangsu Jibeier Pharmaceutical Co. Ltd., priority 2014, dated 2018)
Several values for one entry are separate records, joined by “and”; a condition that tells them apart may be missing. Equal entries are not always repeated. Structures can show the parent of a compound that is named as a salt. Where two headings read alike, the source gives them in different places.

Assay: Pharmacokinetic test in rats, gavage administration
Assay type: in vivo, SD rats
Description: The preferred compound of the present disclosure was assessed in rats for its pharmacokinetic profile.
SD rats, male and female, weighing 150 to 250 g
Mobile phase: 10 mM ammonium formate aqueous solution:methanol=15:85
The ionization source was electrospray ionization source. The detection mode was positive mode. Multiple reaction monitoring (MRM) was used as the scanning mode. The ion reaction for the quantitative analysis was the following: m/z was 305.2\150.0 for XX, and 256.1\167.1 for diphenhydramine (the internal standard).
XX or YY was orally administered with single dose of 20 mg/kg to six SD rats, one half of which were male and the other half was female. XX or YY was dissolved in 10% hydroxypropyl-β-cyclodextrin. […]
After the blood collection, the tubes were immediately gently turned upside down at least five times to ensure sufficient mixing, and placed on ice. Heparin was added for anticoagulation. The samples were centrifuged at 8000 rpm for 5 min to separate serum from erythrocyte. The serum was transferred with a pipettor to 2 mL polypropylene (PP) tubes, which were marked with the name of the compound and the time points, and stored in a refrigerator at −40° C. before LC-MS analysis. Samples with high concentrations were diluted with rat blank plasma.
2.5 μL of Meth-H2O and 5 μL of the internal standard solution (20 ng/mL, IS) were added to 50 μL of the plasma. Subsequently, 150 μL of methanol was added to the mixture to precipitate protein and the samples were then centrifuged at 13000 rpm for 5 min. The upper organic phase was taken out, filtrated with a 0.22 μM microporous membrane, and 2 μL of the sample was injected for the LC-MS analysis.

[1] = both sexes, Sprague-Dawley, rat, plasma, oral, 20 mg/kg, 20 mg/kg oral, individual rats 1-6, read-out: Concentrations in Plasma of Rats after Oral Administration
[2] = both sexes, Sprague-Dawley, rat, plasma, oral, 20 mg/kg, 20 mg/kg oral, mean of 6 rats, read-out: Concentrations in Plasma of Rats after Oral Administration, Mean ± SD
[3] = rats, oral 20 mg/kg, individual rats 1-6, 20 mg/kg

`[2H]C([2H])([2H])c1ccc(Sc2ccccc2N2CCNCC2)c(C([2H])([2H])[2H])c1` [XX, 1-{2-[2,4-bis(trideuteriomethyl)phenylsulfanyl]phenyl}piperazine hydrobromic acid salt] gave a concentration at 10 min (both sexes, Sprague-Dawley, rat, plasma, oral, 20 mg/kg, 20 mg/kg oral, 10 min (Table 5: 0.167 h), mean of 6 rats, read-out: Concentrations in Plasma of Rats after Oral Administration, Mean ± SD) of 13.7 ± 6.65 ng/mL, a concentration at 0.5 h (both sexes, Sprague-Dawley, rat, plasma, oral, 20 mg/kg, 20 mg/kg oral, 0.5 h, mean of 6 rats, read-out: Concentrations in Plasma of Rats after Oral Administration, Mean ± SD) of 62.9 ± 19.6 ng/mL and a concentration at 1 h (both sexes, Sprague-Dawley, rat, plasma, oral, 20 mg/kg, 20 mg/kg oral, 1 h, mean of 6 rats, read-out: Concentrations in Plasma of Rats after Oral Administration, Mean ± SD) of 95.8 ± 32.9 ng/mL. It also gave a concentration at 1.5 h [1] of 73.4 ng/mL, a concentration at 1.5 h [2] of 103 ± 26.9 ng/mL and a concentration at 2 h [1] of 78.6 ng/mL. For the same compound, the concentration at 2 h [2] was 98.2 ± 19.5 ng/mL, the concentration at 3 h [1] was 58 ng/mL and the concentration at 3 h [2] was 68.7 ± 12 ng/mL. For the same compound, the concentration at 4 h [1] was 63.4 ng/mL, the concentration at 4 h [2] was 65.1 ± 10.4 ng/mL and the concentration at 6 h [1] was 46.1 ng/mL. For the same compound, the concentration at 6 h [2] was 44.1 ± 7.27 ng/mL, the concentration at 8 h [1] was 22.1 ng/mL and the concentration at 8 h [2] was 23.5 ± 4.49 ng/mL. The concentration at 10 h [1] was 16.7 ng/mL, the concentration at 10 h [2] was 16.5 ± 2.41 ng/mL and the concentration at 12 h [1] was 8.86 ng/mL. For the same compound, the concentration at 12 h [2] was 8.24 ± 1.69 ng/mL, the concentration at 14 h (both sexes, Sprague-Dawley, rat, plasma, oral, 20 mg/kg, 20 mg/kg oral, 14 h, mean of 6 rats, read-out: Concentrations in Plasma of Rats after Oral Administration, Mean ± SD) was 4.27 ± 1.58 ng/mL and the concentration at 24 h (both sexes, Sprague-Dawley, rat, plasma, oral, 20 mg/kg, 20 mg/kg oral, 24 h, mean of 6 rats, read-out: Concentrations in Plasma of Rats after Oral Administration, Mean ± SD) was 0.75 ± 0.51 ng/mL. For the same compound, the bioavailability (both sexes, Sprague-Dawley, rat, plasma, oral, 20 mg/kg, rats, oral 20 mg/kg vs iv 2 mg/kg, n = 6, read-out: F % (absolute bioavailability), Mean ± SD) was 12.2 ± 1.72%, the AUC(0-t) (both sexes, Sprague-Dawley, rat, plasma, po, 20 mg/kg, gavage administration of 20 mg/kg, rats, read-out: AUC0-t in the rats' plasma) was 583 ± 82.7 ng·h/mL and the “AUC0-t increased comparing with that of its non-deuterium counterpart” value (rats, gavage 20 mg/kg, relative to Vortioxetine) was 19%. For the same compound, the F % (rats, oral 20 mg/kg vs iv 2 mg/kg, individual rats 1-6) was 11.5% and 10.1% and 13.8% and 14.6% and 11.9%, the “AUC0-t (area under the plasma concentration-time curve from zero to the last sampling time)” value [3] was 552.3 ng·h/mL and 487.5 ng·h/mL and 659.3 ng·h/mL and 703.9 ng·h/mL and 569.8 ng·h/mL and the “AUC0-∞” value [3] was 552.5 ng·h/mL and 488.9 ng·h/mL and 666.0 ng·h/mL and 705.3 ng·h/mL and 571.4 ng·h/mL. For the same compound, the Cmax [3] was 91.6 ng/mL and 77.8 ng/mL and 120.8 ng/mL and 144 ng/mL and 115.8 ng/mL, the “MRT0-∞” value [3] was 4.92 h and 5.44 h and 5.08 h and 4.24 h and 4.28 h and the t1/2 [3] was 4.0 h and 1.7 h and 2.8 h and 3.5 h and 2.6 h and 2.9 h.
